# Reference: patent US12473249B2, “Aromatic compounds and pharmaceutical uses thereof” (BASF AS, priority 2018, dated 2025)
# Marks after values point to notes of the source that are not given here.
# Assays:
# Format in all cases: in vivo, mouse
# APOE*3Leiden mice = assay: Plasma lipids in high-fat diet fed APOE*3Leiden mice; conditions: for triglyceride levels over 4 weeks: further study with reference compounds, 0.3 mmol/kg bw/day, FIG. 31
# Protocol: The APOE*3Leiden mouse expresses a variant of the human apolipoprotein E3 (APOE3), the APOE*3Leiden, in addition to the human apolipoprotein C1 (APOC1).
# Studies were performed in APOE*3Leiden mice (13-15 weeks old) placed on a semi-synthetic high fat diet (24% fat w/w) with 0.25% cholesterol w/w. After a 4-week run-in period, mice were sub-divided into groups of 5 mice each and administration of Compound A, Compound B, or vehicle alone was started. Both Compound B and Compound A were administered at a dose of 0.3 mmol/kg bw/day via diet. Sunflower oil (10 ml v/w) was used as a vehicle to facilitate mixing. After 4 weeks of treatment mice were sacrificed by C02 asphyxiation and plasma cholesterol and triglycerides were measured using commercially available kits (Roche*/Hitachi©).
# In a further study, performed as described above, the effects of Compound A, Compound B, and Compound C were compared with the effects of Reference Compound 1 ((Z)-3-(pent-2-en-1-yloxy)benzoic acid) and Reference Compound 2 ((Z)-4-(pent-2-en-1-yloxy)benzoic acid) on triglyceride levels. […] The results of this study are described in Example 17.
# ob/ob AMLN mice = assay: Glycemic control (oral glucose tolerance test, fasting glucose and insulin) in ob/ob AMLN mice; conditions: 0.3 mmol/kg bw day
# Protocol: (§1) ob/ob mice are consistently fibrosis (liver) prone when cholesterol (2%) and 40% fat (containing 18% trans-fatty acids) and 20% fructose are added to a high-caloric diet (i.e., AMLN diet). ob/ob mice on AMLN diet (termed ‘ob/ob AMLN mice’) develop steatohepatitis and fibrosis within a shorter timeframe (<12 weeks) compared with wild-type C57BL/6 mice (AMLN mice) fed the same diet. ob/ob AMLN mice provide an obese diet-induced model of NASH that also allows the study of effects on glycemic control.
# Thirty male ob/ob mice (5 weeks old) were fed the AMLN diet for 15 weeks then randomised into 3 groups of 10 mice/group to receive Compound B or Compound A (both at 0.3 mmol/kg bw day) or no treatment (vehicle) for a further 4 weeks. Assessment of the hepatic expression of key genes regulating plasma lipid concentrations (LDLr), hepatic fibrosis (collA1), bile acid transport/re-uptake (Slc51b and Slc10a2) and inflammation (CD68) was made via RNA sequencing at 4 weeks. […] An additional group of mice (n=5) were also treated with a PPAR-γ agonist (pioglitazone, 30 mg/kg bw day) was also included to compare effects upon bodyweight.
# [1] = system: hepatic expression of key genes; assay: Hepatic target gene expression via RNA sequencing in ob/ob AMLN mice; conditions: 0.3 mmol/kg bw day, 4 weeks treatment
# Protocol: as §1
# (§2) Thirty male ob/ob mice (5 weeks old) were fed the AMLN diet for 15 weeks then randomised into 3 groups of 10 mice/group to receive Compound B or Compound A (both at 0.3 mmol/kg bw day) or no treatment (vehicle) for a further 4 weeks. Assessment of the hepatic expression of key genes regulating plasma lipid concentrations (LDLr), hepatic fibrosis (collA1), bile acid transport/re-uptake (Slc51b and Slc10a2) and inflammation (CD68) was made via RNA sequencing at 4 weeks. To assess the effects of Compound B and Compound A on glycemic control, an oral glucose tolerance test (OGTT) was also performed at 3 weeks. An additional group of mice (n=5) were also treated with a PPAR-γ agonist (pioglitazone, 30 mg/kg bw day) was also included to compare effects upon bodyweight.
# [2] = Relative bodyweight in ob/ob AMLN mice; conditions: 0.3 mmol/kg bw day, 4 weeks treatment, FIG. 11
# Protocol: as §1, §2
# C57BL/6 mice = assay: Hepatic steatosis and organ mass in oral PN diet fed C57BL/6 mice, subsequent experiment at two dosages (H&E); conditions: 19 days
# Text: Male C57BL/6 mice, 6 to 8 weeks old at initiation of the experiments, were used for all experimental groups. Mice were fed either an ad libitum diet of standard rodent chow (calorie composition: 26% protein, 14% fat, 60% carbohydrates) and water or a parenteral nutrition (PN) solution that mimics the PN diet used in neonatal intensive care units. The PN solution was a fat-free, high-carbohydrate liquid diet (20% dextrose, 2% essential and nonessential amino acids, 0.2% pediatric trace elements, 0.5% pediatric multivitamins, 30 mEq of sodium, 20 mEq of potassium, 15 mEq of calcium (as calcium gluconate), 10 mEq of magnesium, 10 mEq of phosphate, 5 mEq of acetate, and 30 mEq of chloride per liter) administered as a single 50 mL bottle per cage which mice consumed ad libitum. […] Prince et al., JPEN J Parenter Enteral Nutr., 2014; 38(5): 608-616.
# In a subsequent experiment, both Compound A and Compound B were tested at two dosages. The results of this experiment are described in Example 15.
# Male C57BL/6 mice, 6 to 8 weeks old at initiation of the experiments, were used for all experimental groups. One group was fed an ad libitum diet of standard rodent chow and water. The group fed standard rodent chow received no additional treatments during the experimental period and served as a negative control group. Seven other groups (10 mice per group) were fed the PN solution described above ad libitum.
# Of the seven groups that received the PN diet, each group received one of the following orogastric protocols administered every other day over 19 days: • (1) Saline: saline solution administered isovolumetric with the Omegaven® group; • (2) MCT: medium-chain triglyceride oil (MCT) (Nestle™ HealthCare Nutrition, Florham Park, NJ), at a dose of 7.4 g of fat/kg body weight; • (3) Omegaven®: Omegaven® (commercial fish oil lipid emulsion) at a dose of 2.4 g fat/kg body weight; • (4) Compound A LOW: Compound A at a dose of 0.3 mmol/kg bw day (diluted in MCT to 0.0375 mmol/mL, resulting in administration of 7.4 g of MCT/kg weight); • (5) Compound A HI: Compound A at a dose of 0.6 mmol/kg bw day (diluted in MCT to 0.075 mmol/mL, resulting in administration of 7.4 g of MCT/kg weight); • (6) Compound B LOW: Compound B at a dose of 0.3 mmol/kg bw day (diluted in MCT to 0.0375 mmol/mL, resulting in administration of 7.4 g of MCT/kg weight); and • (7) Compound B HI: Compound B at a dose of 0.6 mmol/kg bw day (diluted in MCT to 0.075 mmol/mL, resulting in administration of 7.4 g of MCT/kg weight).
# After 19 days of treatment, organs were harvested, including the liver, kidney, and spleen, which were analyzed for relative weight between each group. Livers were also fixed and frozen on dry ice, then stored at −80° C. for hematoxylin and eosin (H&E) stain analysis and Oil Red O analysis.
# [3] = high-fat high-cholesterol diet, 4 weeks treatment
# [4] = high-fat high-cholesterol diet, 4 weeks treatment, dose 0.1 mmol/kg bw/day
# [5] = high-fat high-cholesterol diet, 4 weeks treatment, dose 0.3 mmol/kg bw/day
# [6] = oral PN diet, high and low dosages, FIG. 18
body mass vs chow-fed or PN-fed saline groups (C57BL/6 mice; [6]),liver/body mass vs chow-fed or PN-fed saline groups (C57BL/6 mice; [6]),spleen/body mass vs chow-fed or PN-fed saline groups (C57BL/6 mice; [6]),Compound,plasma TG versus vehicle (APOE*3Leiden mice; [3]),total plasma cholesterol versus vehicle (APOE*3Leiden mice; [3]),Reduction in plasma TG vs control (%) (APOE*3Leiden mice; [4]),Reduction in plasma cholesterol vs control (%) (APOE*3Leiden mice; [4]),Reduction in plasma TG vs control (%) (APOE*3Leiden mice; [5]),Reduction in plasma cholesterol vs control (%) (APOE*3Leiden mice; [5]),"total plasma glucose (area-under-the-curve from 0-240 mins) versus vehicle in response to an oral glucose load (ob/ob AMLN mice; after 3 weeks treatment, FIG. 1)","plasma glucose at 30- and 60-mins versus vehicle in response to an oral glucose load (ob/ob AMLN mice; after 3 weeks treatment, FIG. 2)","fasting plasma insulin versus vehicle (ob/ob AMLN mice; after 4 weeks treatment, FIG. 3)","fasting plasma glucose versus vehicle (ob/ob AMLN mice; after 4 weeks treatment, FIG. 4)",hepatic expression of Coll al (collagen1a1) versus vehicle ([1]; FIG. 5),expression of hepatic LDLr versus vehicle ([1]; FIG. 12),relative bodyweight versus vehicle [2],"development of steatosis induced by an oral PN diet (H&E stain in isolated liver sections) (C57BL/6 mice; 0.3 and 0.6 mmol/kg bw day in MCT by orogastric gavage, FIGS. 14-17)",triglyceride levels over 4 weeks (APOE*3Leiden mice)
not significantly different,not significantly different,not significantly different,"CC/C=C\COc1cccc(C(=O)O)c1C [Compound B, (Z)-2-methyl-3-(pent-2-en-1-yloxy)benzoic acid]",significantly reduce,significantly reduce,45** %,24** %,63** %,27** %,significantly reduce,significantly reduce,reduce,significantly reduce,significantly reduce,significantly increase,no effect,prevented the development of steatosis,–
–,–,–,"CC/C=C\COc1cccc(C(=O)O)c1 [Reference Compound 1, (Z)-3-(pent-2-en-1-yloxy)benzoic acid, reference compound]",–,–,–,–,–,–,–,–,–,–,–,–,–,–,did affect
–,–,–,"CC/C=C\COc1ccc(C(=O)O)cc1 [Reference Compound 2, (Z)-4-(pent-2-en-1-yloxy)benzoic acid, reference compound]",–,–,–,–,–,–,–,–,–,–,–,–,–,–,did affect
